# Reference: patent publication US6599914B2, “Inhibition of cytokine generation” (Schering Corporation, priority 2001, dated 2003)
# Entries after “also recorded” stand apart in the source; their conditions may differ.
# Experiments:
# basophilic cells = settings: relatively high concentrations; cited from earlier work
# endothelial cells = settings: in vitro; cited from earlier work
# [1] = tested on: human basophilic leukocyte cells; settings: in vitro; cited from earlier work
# IL-4 mRNA = settings: desloratadine 10 μM
# Protocol: Cultures for the analysis of IL-4 mRNA were performed in 1.5 ml polypropylene microcentrifuge tubes, as described above. […] Total RNA was isolated using the RNAzol protocol (Tel-test Inc., Friendswood, Tex.) after 2 hours incubation, which is the time that IL-4 message expression peaks using IgE-dependent activation (Schroeder, et al., J. Immunol.1997, Vol.158:5448-5454). Following isopropanol precipitation, the RNA was washed with 70% ethanol and dried under vacuum. Subsequently, the RNA was resuspended in 25 μl of diethipyrocarbonate (DEPC)-treated water and stored at −80° C. Reverse Transcription (RT) and polymerase chain reaction (PCR) were performed with serial dilutions of RNA as previously detailed (MacGlashan, et al., J. Immunol, 1994; Vol. 152:3006-3016; Schroeder, at al., J. Immunol., 1997, Vol. 158: 5448-5454) using the GeneAmp RNA PCR kit (Perkin-Elmer Cetus, Norwalk, Conn.). PCR products were visualized in 3% agrose gels using ethidium bromide staining.
# Total RNA was isolated after 2 h and used for dilutional RT-PCR analysis to compare message expression for IL-4 and the housekeeping gene, hypoxanthine phosphoribosyl transferase (HPRT) (panel a).
# For these experiments, we used a dilutional RT-PCR protocol to provide a semi-quantitative analysis.
# [2] = tested on: seasonal allergic rhinitis patients; assay: Double-blinded, randomized clinical trials in seasonal allergic rhinitis patients
# Protocol: Efficacy endpoints in all the studies were Total Symptom Score, Total Nasal Symptom Score, Total Non-nasal Symptom Score, and Health Quality of Life (HQOL) analysis in efficacy trials. […] This parameter measures the total symptom relief by the patient after 24 hours before taking the next day dose.
# human basophils = settings: ionomycin 500 ng/ml; 0.1, 1.0 and 10 μM desloratadine; 4 hours
# Protocol: Mixed leukocyte suspensions containing basophils were prepared either using double-Percoll density centrifugation as described (Schroeder, et al., J. Immunol.,1994, Vol. 153: 1808, or by a combination of countercurrent elutriation and Percoll density centrifugation protocols (MacGlashan, et al., J. Immunol.,1994, Vol. 153:3006-3016). The percentages of basophils obtained using these protocols typically ranged between 5-50% and 10-30%, respectively, and were determined by counting Alcian blue positive and negative stained cells on a Spiers-Levy chamber (Gilbert and Ornstein, 1975). For some experiments, the basophils were additionally purified to >99.9% using a negative-selection protocol (Miltenyi Corp., Auburn, Calif.). […] For the analysis of IL-4 mRNA expression, cells in C-IMDM were cultured in autoclaved (RNase-free) 1.5 ml microcentrifuge tubes (see below), since this allowed for a more precise way to quantitatively isolate mRNA without the need for transferring cells from culture wells before extraction. […] Histamine, LTC4, and IL-4 were all measured in aliquots of culture supernatant taken at 4 hours. […] LTC4 was measured by an in-house RIA (MacGlashan, et al., J. Immunol. 1986, Vol.136:2231-2239). IL-4 protein was measured by a commercial ELISA (Biosource International). […]
Compound,inhibition of IL-4 and IL-13 secretion (basophilic cells) [%],histamine-induced release of IL-6 and IL-8 (endothelial cells),IgE- and non-IgE-mediated histamine release [1],effect on expression of the housekeeping gene HPRT (IL-4 mRNA),reduction of nasal symptoms versus placebo ([2]; 5 mg),total symptom scores ([2]; 5 mg once daily),"AM NOW total symptom score, full 24 hour dosing interval ([2]; 5 mg to 20 mg dosage range)","differences in effectiveness across subgroups defined by gender, age, or race ([2]; 5 mg to 20 mg dosage range)",effect on histamine secretion induced by ionomycin (human basophils)
CC(C)(C)c1ccc(C(O)CCCN2CCC(C(O)(c3ccccc3)c3ccccc3)CC2)cc1 (stereo not drawn) [terfenadine],50,,,,,,,,
Clc1ccc2c(c1)CCc1cccnc1C2=C1CCNCC1 [desloratadine],,reduces,inhibits,no effect; also recorded: unaffected,significantly (p<0.01) more effective than placebo,significantly reduced,Statistically significant (p<0.05) reductions,no significant differences,lack of an effect; also recorded: unaffected
